According to patent US9499550B2 (BRISTOL-MYERS SQUIBB COMPANY, priority 2012, dated 2016):

Tests used:
[1] = tested on: HCV genotype 1a (H77 strain) replicon in HUH-7 cells; experiment: HCV replicon luciferase reporter assay, genotype 1a; format: cell-based; settings: Hepatitis C virus, Huh-7, 72 h, HCV genotype 1a replicon luciferase assay, 3 days incubation, range class, read-out: LE_1a (EC50, range)
In short: (§1)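 Replicon inhibition for both genotypes was measured as Renilla luciferase signal (EnduRen, 7.5 μM final, 2 h) after 3-day, 37° C exposure of replicon-bearing HUH-7 cells in 4% FCS DMEM, 0.5% DMSO. The 1b construct carries S1179I; the 1a H77 construct carries P1496L and S2204I. Twenty-point, 3-fold dilutions were fitted four-parametrically for EC50, and CC50 was taken from multiplexed Cell Titer-Blue.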

[2] = tested on: HCV genotype 1b (Con1) replicon in HUH-7 cells; experiment: HCV replicon luciferase reporter assay, genotype 1b; format: cell-based; settings: Hepatitis C virus, Huh-7, 72 h, HCV genotype 1b replicon luciferase assay, 3 days incubation, range class, read-out: LE_1b (EC50, range)
In short: as §1

Q: `COc1ccc2c(O[C@@H]3C[C@H]4C(=O)N[C@]5(C(=O)NS(=O)(=O)C6(C)CC6)C[C@H]5/C=C\CC[C@@H](C)C[C@@H](C)[C@H](NC(=O)OC(C)(C)C)C(=O)N4C3)nc(-c3ccc(OC(C)C)c(F)c3)cc2c1` [Compound 3062, tert-butyl ((2R,6S,7R,9R,13aS,14aR,16aS,Z)-2-((3-(3-fluoro-4-isopropoxyphenyl)-6-methoxyisoquinolin-1-yl)oxy)-7,9-dimethyl-14a-(((1-methylcyclopropyl)sulfonyl)carbamoyl)-5,16-dioxo-1,2,3,5,6,7,8,9,10,11,13a,14,14a,15,16,16a-hexadecahydrocyclopropa[e]pyrrolo[1,2-a][1,4]diazacyclopentadecin-6-yl)carbamate] was tested. Which EC50 [1] did it give?
A: < 5.46 nM

Q: What about the EC50 [2] of the same compound?
A: < 5.46 nM

Q: How did the EC50 [1] turn out when `COc1ccc2c(O[C@@H]3C[C@H]4C(=O)N[C@]5(C(=O)NS(=O)(=O)C6CC6)C[C@H]5/C=C\CC[C@H](C)C[C@@H](C)[C@H](NC(=O)OC(C)(C)C(F)(F)F)C(=O)N4C3)nc(-c3ccc(OC(C)C)c(F)c3)cc2c1` [Compound 3063, 1,1,1-trifluoro-2-methylpropan-2-yl((2R,6S,7R,9S,13aS,14aR,16aS,Z)-14a-((cyclopropylsulfonyl)carbamoyl)-2-((3-(3-fluoro-4-isopropoxyphenyl)-6-methoxyisoquinolin-1-yl)oxy)-7,9-dimethyl-5,16-dioxo-1,2,3,5,6,7,8,9,10,11,13a,14,14a,15,16,16a-hexadecahydrocyclopropa[e]pyrrolo[1,2-a][1,4]diazacyclopentadecin-6-yl)carbamate] was run?
A: 4.82 to 103 nM

Q: What about the EC50 [2] of the same compound?
A: < 5.46 nM

Q: Which results are given for `COc1ccc2c(O[C@@H]3C[C@H]4C(=O)N[C@]5(C(=O)NS(=O)(=O)C6CC6)C[C@H]5/C=C\CC[C@@H](C)C[C@@H](C)[C@H](NC(=O)OC(C)(C)C(F)(F)F)C(=O)N4C3)nc(-c3ccc(OC(C)C)c(F)c3)cc2c1` [Compound 3064, 1,1,1-trifluoro-2-methylpropan-2-yl((2R,6S,7R,9R,13aS,14aR,16aS,Z)-14a-((cyclopropylsulfonyl)carbamoyl)-2-((3-(3-fluoro-4-isopropoxyphenyl)-6-methoxyisoquinolin-1-yl)oxy)-7,9-dimethyl-5,16-dioxo-1,2,3,5,6,7,8,9,10,11,13a,14,14a,15,16,16a-hexadecahydrocyclopropa[e]pyrrolo[1,2-a][1,4]diazacyclopentadecin-6-yl)carbamate]?
A: EC50 [1]: < 5.46 nM; EC50 [2]: < 5.46 nM

Q: `COc1ccc2c(O[C@@H]3C[C@H]4C(=O)N[C@]5(C(=O)NS(=O)(=O)C6CC6)C[C@H]5/C=C\CC[C@H](C)C[C@@H](C)[C@H](NC(=O)OCC5(C)CC5)C(=O)N4C3)nc(-c3ccc(OC(C)C)c(F)c3)cc2c1` [Compound 3065, (1-methylcyclopropyl)methyl ((2R,6S,7R,9S,13aS,14aR,16aS,Z)-14a-((cyclopropylsulfonyl)carbamoyl)-2-((3-(3-fluoro-4-isopropoxyphenyl)-6-methoxyisoquinolin-1-yl)oxy)-7,9-dimethyl-5,16-dioxo-1,2,3,5,6,7,8,9,10,11,13a,14,14a,15,16,16a-hexadecahydrocyclopropa[e]pyrrolo[1,2-a][1,4]diazacyclopentadecin-6-yl)carbamate] was tested. Which EC50 [1] did it give?
A: 4.82 to 103 nM

Q: And the EC50 [2]?
A: < 5.46 nM

Q: Which results are given for `COc1ccc2c(O[C@@H]3C[C@H]4C(=O)N[C@]5(C(=O)NS(=O)(=O)C6CC6)C[C@H]5/C=C\CC[C@@H](C)C[C@@H](C)[C@H](NC(=O)OCC5(C)CC5)C(=O)N4C3)nc(-c3ccc(OC(C)C)c(F)c3)cc2c1` [Compound 3066, (1-methylcyclopropyl)methyl ((2R,6S,7R,9R,13aS,14aR,16aS,Z)-14a-((cyclopropylsulfonyl)carbamoyl)-2-((3-(3-fluoro-4-isopropoxyphenyl)-6-methoxyisoquinolin-1-yl)oxy)-7,9-dimethyl-5,16-dioxo-1,2,3,5,6,7,8,9,10,11,13a,14,14a,15,16,16a-hexadecahydrocyclopropa[e]pyrrolo[1,2-a][1,4]diazacyclopentadecin-6-yl)carbamate]?
A: EC50 [1]: < 5.46 nM; EC50 [2]: < 5.46 nM

Q: Which results are given for `COc1ccc2c(O[C@@H]3C[C@H]4C(=O)N[C@]5(C(=O)NS(=O)(=O)C6(C)CC6)C[C@H]5/C=C\CC[C@H](C)C[C@@H](C)[C@H](NC(=O)OCC5(C)CC5)C(=O)N4C3)nc(-c3ccc(OC(C)C)c(F)c3)cc2c1` [Compound 3067, (1-methylcyclopropyl)methyl ((2R,6S,7R,9S,13aS,14aR,16aS,Z)-2-((3-(3-fluoro-4-isopropoxyphenyl)-6-methoxyisoquinolin-1-yl)oxy)-7,9-dimethyl-14a-(((1-methylcyclopropyl)sulfonyl)carbamoyl)-5,16-dioxo-1,2,3,5,6,7,8,9,10,11,13a,14,14a,15,16,16a-hexadecahydrocyclopropa[e]pyrrolo[1,2-a][1,4]diazacyclopentadecin-6-yl)carbamate]?
A: EC50 [1]: 4.82 to 103 nM; EC50 [2]: < 5.46 nM

Q: Which results are given for `COc1ccc2c(O[C@@H]3C[C@H]4C(=O)N[C@]5(C(=O)NS(=O)(=O)C6(C)CC6)C[C@H]5/C=C\CC[C@@H](C)C[C@@H](C)[C@H](NC(=O)OCC5(C)CC5)C(=O)N4C3)nc(-c3ccc(OC(C)C)c(F)c3)cc2c1` [Compound 3068, (1-methylcyclopropyl)methyl ((2R,6S,7R,9R,13aS,14aR,16aS,Z)-2-((3-(3-fluoro-4-isopropoxyphenyl)-6-methoxyisoquinolin-1-yl)oxy)-7,9-dimethyl-14a-(((1-methylcyclopropyl)sulfonyl)carbamoyl)-5,16-dioxo-1,2,3,5,6,7,8,9,10,11,13a,14,14a,15,16,16a-hexadecahydrocyclopropa[e]pyrrolo[1,2-a][1,4]diazacyclopentadecin-6-yl)carbamate]?
A: EC50 [1]: < 5.46 nM; EC50 [2]: < 5.46 nM

Q: Which results are given for `COc1ccc2c(O[C@@H]3C[C@H]4C(=O)N[C@]5(C(=O)NS(=O)(=O)C6CC6)C[C@H]5/C=C\CC[C@H](C)C[C@@H](C)[C@H](NC(=O)O[C@@H]5C[C@@H]6C[C@@H]6C5)C(=O)N4C3)nc(-c3ccc(OC(C)C)c(F)c3)cc2c1` [Compound 3069, (1R,3r,5S)-bicyclo[3.1.0]hexan-3-yl((2R,6S,7R,9S,13aS,14aR,16aS,Z)-14a-((cyclopropylsulfonyl)carbamoyl)-2-((3-(3-fluoro-4-isopropoxyphenyl)-6-methoxyisoquinolin-1-yl)oxy)-7,9-dimethyl-5,16-dioxo-1,2,3,5,6,7,8,9,10,11,13a,14,14a,15,16,16a-hexadecahydrocyclopropa[e]pyrrolo[1,2-a][1,4]diazacyclopentadecin-6-yl)carbamate]?
A: EC50 [1]: 4.82 to 103 nM; EC50 [2]: < 5.46 nM

Q: With `COc1ccc2c(O[C@@H]3C[C@H]4C(=O)N[C@]5(C(=O)NS(=O)(=O)C6CC6)C[C@H]5/C=C\CC[C@@H](C)C[C@@H](C)[C@H](NC(=O)O[C@@H]5C[C@@H]6C[C@@H]6C5)C(=O)N4C3)nc(-c3ccc(OC(C)C)c(F)c3)cc2c1` [Compound 3070, (1R,3r,5S)-bicyclo[3.1.0]hexan-3-yl((2R,6S,7R,9R,13aS,14aR,16aS,Z)-14a-((cyclopropylsulfonyl)carbamoyl)-2-((3-(3-fluoro-4-isopropoxyphenyl)-6-methoxyisoquinolin-1-yl)oxy)-7,9-dimethyl-5,16-dioxo-1,2,3,5,6,7,8,9,10,11,13a,14,14a,15,16,16a-hexadecahydrocyclopropa[e]pyrrolo[1,2-a][1,4]diazacyclopentadecin-6-yl)carbamate] as the compound, how does the EC50 [1] read?
A: < 5.46 nM

Q: What about the EC50 [2] of the same compound?
A: < 5.46 nM

Q: `COc1ccc2c(O[C@@H]3C[C@H]4C(=O)N[C@]5(C(=O)NS(=O)(=O)C6(C)CC6)C[C@H]5/C=C\CC[C@H](C)C[C@@H](C)[C@H](NC(=O)O[C@@H]5C[C@@H]6C[C@@H]6C5)C(=O)N4C3)nc(-c3ccc(OC(C)C)c(F)c3)cc2c1` [Compound 3071, (1R,3r,5S)-bicyclo[3.1.0]hexan-3-yl((2R,6S,7R,9S,13aS,14aR,16aS,Z)-2-((3-(3-fluoro-4-isopropoxyphenyl)-6-methoxyisoquinolin-1-yl)oxy)-7,9-dimethyl-14a-(((1-methylcyclopropyl)sulfonyl)carbamoyl)-5,16-dioxo-1,2,3,5,6,7,8,9,10,11,13a,14,14a,15,16,16a-hexadecahydrocyclopropa[e]pyrrolo[1,2-a][1,4]diazacyclopentadecin-6-yl)carbamate] was tested. Which EC50 [1] did it give?
A: 4.82 to 103 nM

Q: What about the EC50 [2] of the same compound?
A: < 5.46 nM

Q: Which EC50 [1] does the source give for `COc1ccc2c(O[C@@H]3C[C@H]4C(=O)N[C@]5(C(=O)NS(=O)(=O)C6(C)CC6)C[C@H]5/C=C\CC[C@@H](C)C[C@@H](C)[C@H](NC(=O)O[C@@H]5C[C@@H]6C[C@@H]6C5)C(=O)N4C3)nc(-c3ccc(OC(C)C)c(F)c3)cc2c1` [Compound 3072, (1R,3r,5S)-bicyclo[3.1.0]hexan-3-yl((2R,6S,7R,9R,13aS,14aR,16aS,Z)-2-((3-(3-fluoro-4-isopropoxyphenyl)-6-methoxyisoquinolin-1-yl)oxy)-7,9-dimethyl-14a-(((1-methylcyclopropyl)sulfonyl)carbamoyl)-5,16-dioxo-1,2,3,5,6,7,8,9,10,11,13a,14,14a,15,16,16a-hexadecahydrocyclopropa[e]pyrrolo[1,2-a][1,4]diazacyclopentadecin-6-yl)carbamate] here?
A: < 5.46 nM

Q: What about the EC50 [2] of the same compound?
A: < 5.46 nM

Q: `COc1ccc2c(O[C@@H]3C[C@H]4C(=O)N[C@]5(C(=O)NS(=O)(=O)C6CC6)C[C@H]5/C=C\CC[C@H](C)C[C@@H](C)[C@H](NC(=O)O[C@H](C)C(F)(F)F)C(=O)N4C3)nc(-c3ccc(OC(C)C)c(F)c3)cc2c1` [Compound 3073, (R)-1,1,1-trifluoropropan-2-yl ((2R,6S,7R,9S,13aS,14aR,16aS,Z)-14a-((cyclopropylsulfonyl)carbamoyl)-2-((3-(3-fluoro-4-isopropoxyphenyl)-6-methoxyisoquinolin-1-yl)oxy)-7,9-dimethyl-5,16-dioxo-1,2,3,5,6,7,8,9,10,11,13a,14,14a,15,16,16a-hexadecahydrocyclopropa[e]pyrrolo[1,2-a][1,4]diazacyclopentadecin-6-yl)carbamate] was tested. Which EC50 [1] did it give?
A: 4.82 to 103 nM

Q: What about the EC50 [2] of the same compound?
A: < 5.46 nM
